As usually defined, the IC50 is the midpoint of a concentration-inhibition curve. Higher therefore signals weaker potency in that assay.

A value given as a limit tells only on which side of the number the result lay.

One assay has as its target T1, human 15-PGDH (Homo sapiens, UniProt P15428).
T1 construct: purchased R&D System 5660-DH
T1 sequence (P15428 1-266): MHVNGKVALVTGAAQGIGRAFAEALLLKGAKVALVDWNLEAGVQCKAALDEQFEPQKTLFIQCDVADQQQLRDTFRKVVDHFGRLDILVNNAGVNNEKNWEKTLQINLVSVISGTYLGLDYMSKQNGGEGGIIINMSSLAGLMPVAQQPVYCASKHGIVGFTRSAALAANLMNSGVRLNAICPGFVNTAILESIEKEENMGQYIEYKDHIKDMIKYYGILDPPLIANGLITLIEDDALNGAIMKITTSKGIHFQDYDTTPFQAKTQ
Kind of assay: Evaluation of 15-PGDH inhibitory activity (fluorescence enzyme assay, NAD+/PGE2). Particulars: human 15-PGDH enzyme, fluorescence Vmax. Type of assay: biochemical. The procedure: 15-PGDH inhibition activity of Example compounds was measured as follows. 6.7 ng of human 15-PGDH (R&D System# 5660-DH) enzyme (10 µL) was added to a black 96 well plate, 60 µL of buffer (50 mM Tris-HCl, pH 7.5, 0.01% Tween 20) was added, and 10 µL of 200 µM β-Nicotinamide adenine dinucleotide sodium salt (Sigma, Cat# N0632-5G) was added. 10 µL of (10x) compound solution in DMSO was added and reacted for 10 minutes at room temperature.

The next assay has as its system A549 cells. Kind of assay: Measurement of PGE2-increasing activity in A549 cells (IL-1β stimulated, PGE2 quantified in supernatant). The class given is cell-based. Particulars: Homo sapiens, 24 h; concentration of 1 µM of each compound; IL-1β treated A549 cells; read-out: Increased PGE2 production in A549 cells. The method, boiled down:
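PGE2 secreted into the supernatant was measured by immunoassay 24 h after treatment. Before treatment, A549 cells were cultured 24 h in 10% FBS F12K, washed, and placed in serum-free medium containing compound (DMSO 0.1% final) plus or minus IL-1β, incubated at 37 °C, 5% CO2.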

At human 15-PGDH, `Cn1nccc1-c1cc(-c2cccc3c(C(=O)N4CCCCC4)cnn23)cc(N2CCOCC2)n1` [Example 369, (7-(2-(1-methyl-1H-pyrazol-5-yl)-6-morpholinopyridin-4-yl)pyrazolo[1,5-a]pyridin-3-yl)(piperidin-1-yl)methanone] returned an IC50 of no more than 100 nM. Further, in the assay with A549 cells, the fold induction at 1 µM was greater than 1.5.

For the compound `Cn1cnc2cc(-c3cccc4c(C(=O)N5CCCCC5)cnn34)ccc2c1=O` [Example 251, 3-methyl-7-(3-(piperidine-1-carbonyl)pyrazolo[1,5-a]pyridin-7-yl)quinazolin-4(3H)-one], on human 15-PGDH, the IC50 is no more than 100 nM. Moreover, in the assay with A549 cells, the fold induction at 1 µM is greater than 1.5.

The compound `O=C(Nc1cccc2c(C(=O)N3CCCCC3)cnn12)c1ccc(Cl)cc1` [Example 239, 4-chloro-N-[3-(piperidine-1-carbonyl)pyrazolo[1,5-a]pyridin-7-yl]benzamide] showed an IC50 against human 15-PGDH of no more than 100 nM. Also, the fold induction at 1 µM in the assay with A549 cells was greater than 1.5.

In turn, `O=C(c1cnn2c(-c3cnc(-c4noc(=O)[nH]4)c(F)c3)cccc12)N1CCCCC1` [Example 247, 3-[3-fluoro-5-[3-(piperidine-1-carbonyl)pyrazolo[1,5-a]pyridin-7-yl]-2-pyridyl]-4H-1,2,4-oxadiazol-5-one] displayed an IC50 against human 15-PGDH of no more than 100 nM. Further, in the assay with A549 cells, the fold induction at 1 µM is greater than 1.5.

In turn, `O=C(c1cnn2c(-c3cc(F)nc(F)c3)cccc12)N1CCCCC1` [Example 273, (7-(2,6-difluoropyridin-4-yl)pyrazolo[1,5-a]pyridin-3-yl)(piperidin-1-yl)methanone] had a concentration for half-maximal inhibition (IC50) against human 15-PGDH of no more than 100 nM. Moreover, the fold induction at 1 µM in the assay on A549 cells is greater than 1.5.

In the case of `O=C(Nc1cncc(-c2cccc3c(C(=O)N4CCCCC4)cnn23)c1)c1cccnc1` [Example 326, N-(5-(3-(piperidine-1-carbonyl)pyrazolo[1,5-a]pyridin-7-yl)pyridin-3-yl)nicotinamide], the IC50 at human 15-PGDH is no more than 100 nM. For the same compound, the fold induction at 1 µM in the assay with A549 cells was greater than 1.5.

For the compound `O=C(c1ncc(-c2cccc3c(C(=O)N4CCCCC4)cnn23)cn1)N1CCC1` [Example 277, [7-[2-(azetidine-1-carbonyl)pyrimidin-5-yl]pyrazolo[1,5-a]pyridin-3-yl]-(1-piperidyl)methanone], the IC50 against human 15-PGDH was no more than 100 nM. In addition, in the assay on A549 cells, the fold induction at 1 µM was greater than 1.5.

On to `CC(C)N1CCN(C(=O)c2cncc(-c3cccc4c(C(=O)N5CCCCC5)cnn34)c2)CC1` [Example 50, (4-isopropylpiperazin-1-yl)(5-(3-(piperidine-1-carbonyl)pyrazolo[1,5-a]pyridin-7-yl)pyridin-3-yl)methanone], for which the IC50 against human 15-PGDH is no more than 100 nM. Moreover, in the assay with A549 cells, the fold induction at 1 µM was greater than 1.5.

Regarding `COCCC(=O)Nc1ccc(-c2cccc3c(C(=O)N4CCCCC4)cnn23)cc1` [Example 98, 3-methoxy-N-(4-(3-(piperidine-1-carbonyl)pyrazolo[1,5-a]pyridin-7-yl)phenyl)propanamide], at human 15-PGDH, the IC50 was no more than 100 nM. For the same compound, the fold induction at 1 µM in the assay on A549 cells is greater than 1.5.

At human 15-PGDH, `CN(C)CCNC(=O)c1cccc(-c2cccc3c(C(=O)N4CCCCC4)cnn23)c1` [Example 31, N-(2-(dimethylamino)ethyl)-3-(3-(piperidine-1-carbonyl)pyrazolo[1,5-a]pyridin-7-yl)benzamide] came in with an IC50 of no more than 100 nM. Besides, the fold induction at 1 µM with A549 cells was less than 1.5.

`CCC1CCCN(C(=O)c2cnn3c(-c4ccc5c(c4)C(=O)NC5)cccc23)C1` (stereo not shown) [Example 393, 6-(3-(3-ethylpiperidine-1-carbonyl)pyrazolo[1,5-a]pyridin-7-yl)isoindolin-1-one] yielded an IC50 on human 15-PGDH of no more than 100 nM. Besides, the fold induction at 1 µM with A549 cells is greater than 1.5.

`Nc1noc2ccc(-c3cccc4c(C(=O)N5CCCCC5)cnn34)cc12` [Example 259, [7-(3-amino-1,2-benzoxazol-5-yl)pyrazolo[1,5-a]pyridin-3-yl]-(1-piperidyl)methanone] returned an IC50 on human 15-PGDH of no more than 100 nM. In addition, the fold induction at 1 µM in the assay with A549 cells is greater than 1.5.

`COCCCNc1ccc(-c2cccc3c(C(=O)N4CCCCC4)cnn23)cn1` [Example 107, (7-(6-((3-methoxypropyl)amino)pyridin-3-yl)pyrazolo[1,5-a]pyridin-3-yl)(piperidin-1-yl)methanone] registered an IC50 at human 15-PGDH of no more than 100 nM. The fold induction at 1 µM with A549 cells is greater than 1.5.

On human 15-PGDH, `O=C(Cc1ccccc1)Nc1cncc(-c2cccc3c(C(=O)N4CCCCC4)cnn23)c1` [Example 389, 2-phenyl-N-(5-(3-(piperidine-1-carbonyl)pyrazolo[1,5-a]pyridin-7-yl)pyridin-3-yl)acetamide] registered an IC50 of no more than 100 nM. In addition, the fold induction at 1 µM in the assay with A549 cells was greater than 1.5.

Take `O=C(c1cnn2c(-c3ccc(-c4cn[nH]c4)cc3)cccc12)N1CCCCC1` [Example 346, 1-piperidyl-[7-[4-(1H-pyrazol-4-yl)phenyl]pyrazolo[1,5-a]pyridin-3-yl]methanone]: the IC50 against human 15-PGDH was no more than 100 nM. Besides, the fold induction at 1 µM in the assay on A549 cells is greater than 1.5.

For the compound `N#Cc1ccc(-c2cccc3c(C(=O)N4CCCCC4)cnn23)cc1F` [Example 22, 2-fluoro-4-(3-(piperidine-1-carbonyl)pyrazolo[1,5-a]pyridin-7-yl)benzonitrile], the IC50 against human 15-PGDH is no more than 100 nM. For the same compound, in the assay on A549 cells, the fold induction at 1 µM is greater than 1.5.

Turning to `CS(=O)(=O)Nc1ccc(-c2cccc3c(C(=O)N4CCCCC4)cnn23)cn1` [Example 112, N-(5-(3-(piperidine-1-carbonyl)pyrazolo[1,5-a]pyridin-7-yl)pyridin-2-yl)methanesulfonamide], the IC50 at human 15-PGDH is no more than 100 nM. In addition, in the assay with A549 cells, the fold induction at 1 µM is greater than 1.5.

`Nc1n[nH]c2ccc(-c3cccc4c(C(=O)N5CCCCC5)cnn34)cc12` [Example 260, [7-(3-amino-1H-indazol-5-yl)pyrazolo[1,5-a]pyridin-3-yl]-(1-piperidyl)methanone] registered an IC50 against human 15-PGDH of no more than 100 nM. For the same compound, the fold induction at 1 µM in the assay with A549 cells was greater than 1.5.

For the compound `O=C(c1cnn2c(-c3ccc(-c4noc(=O)[nH]4)cc3F)cccc12)N1CCCCC1` [Example 295, 3-[3-fluoro-4-[3-(piperidine-1-carbonyl)pyrazolo[1,5-a]pyridin-7-yl]phenyl]-4H-1,2,4-oxadiazol-5-one], the IC50 against human 15-PGDH was no more than 100 nM. Moreover, the fold induction at 1 µM with A549 cells was greater than 1.5.

Take `Cc1nnc(-c2ccc(-c3cccc4c(C(=O)N5CCCCC5)cnn34)cn2)o1` [Example 364, [7-[6-(5-methyl-1,3,4-oxadiazol-2-yl)-3-pyridyl]pyrazolo[1,5-a]pyridin-3-yl]-(1-piperidyl)methanone]: at human 15-PGDH, the IC50 is no more than 100 nM. Moreover, the fold induction at 1 µM with A549 cells was greater than 1.5.

`Nc1n[nH]c2cc(-c3cccc4c(C(=O)N5CCCCC5)cnn34)ccc12` [Example 309, [7-(3-amino-1H-indazol-6-yl)pyrazolo[1,5-a]pyridin-3-yl]-(1-piperidyl)methanone] yielded an IC50 against human 15-PGDH of no more than 100 nM. Besides, the fold induction at 1 µM in the assay with A549 cells was greater than 1.5.

On human 15-PGDH, `O=C(c1cnn2c(-c3ccc4cn[nH]c(=O)c4c3)cccc12)N1CCCCC1` [Example 224, 7-(3-(piperidine-1-carbonyl)pyrazolo[1,5-a]pyridin-7-yl)phthalazin-1(2H)-one] yielded an IC50 of no more than 100 nM. Also, the fold induction at 1 µM with A549 cells is greater than 1.5.

At human 15-PGDH, `O=C(c1cnn2c(-c3ccc(-c4n[nH]c(=S)o4)nc3)cccc12)N1CCCCC1` [Example 365, 1-piperidyl-[7-[6-(2-thioxo-3H-1,3,4-oxadiazol-5-yl)-3-pyridyl]pyrazolo[1,5-a]pyridin-3-yl]methanone] returned an IC50 of no more than 100 nM. Besides, in the assay on A549 cells, the fold induction at 1 µM was greater than 1.5.

`O=C(c1cnn2c(-c3cccc(C=NO)c3)cccc12)N1CCCCC1` [Example 253, 3-(3-(piperidine-1-carbonyl)pyrazolo[1,5-a]pyridin-7-yl)benzaldehyde oxime]: the IC50 on human 15-PGDH was no more than 100 nM. In the assay on A549 cells, the fold induction at 1 µM was greater than 1.5.

On human 15-PGDH, `O=C(c1cnn2c(-c3cc(Br)cnc3N3CC(CO)C3)cccc12)N1CCCCC1` [Example 363, (7-(5-bromo-2-(3-(hydroxymethyl)azetidin-1-yl)pyridin-3-yl)pyrazolo[1,5-a]pyridin-3-yl)(piperidin-1-yl)methanone] came in with an IC50 of no more than 100 nM. In addition, in the assay with A549 cells, the fold induction at 1 µM was less than 1.5.

Compound `O=C(c1cnn2c(NCc3ncccn3)cccc12)N1CCCCC1` [Example 148, piperidin-1-yl(7-((pyrimidin-2-ylmethyl)amino)pyrazolo[1,5-a]pyridin-3-yl)methanone] came in with an IC50 against human 15-PGDH of no more than 100 nM. Moreover, the fold induction at 1 µM in the assay with A549 cells is greater than 1.5.

As for `CC(C)NC(=O)c1ccc(-c2cccc3c(C(=O)N4CCCCC4)cnn23)cn1` [Example 76, N-isopropyl-5-(3-(piperidine-1-carbonyl)pyrazolo[1,5-a]pyridin-7-yl)picolinamide], the IC50 against human 15-PGDH is no more than 100 nM. Further, in the assay on A549 cells, the fold induction at 1 µM is greater than 1.5.

With `N#Cc1cc(F)cc(-c2cccc3c(C(=O)N4CCCCC4)cnn23)c1` [Example 291, 3-fluoro-5-(3-(piperidine-1-carbonyl)pyrazolo[1,5-a]pyridin-7-yl)benzonitrile], the IC50 against human 15-PGDH was no more than 100 nM. Moreover, the fold induction at 1 µM in the assay with A549 cells was greater than 1.5.

Compound `O=C1NCc2ccc(Nc3cccc4c(C(=O)N5CCCCC5)cnn34)cc21` [Example 212, 6-[[3-(piperidine-1-carbonyl)pyrazolo[1,5-a]pyridin-7-yl]amino]isoindolin-1-one] came in with an IC50 on human 15-PGDH of no more than 100 nM. Also, the fold induction at 1 µM in the assay with A549 cells is greater than 1.5.

For the origin of these results see patent EP4653437A2 (Innovo Therapeutics Inc., priority 2023, dated 2024).
